Laboratory results as given in publication PMC11864979, “First-in-class ultralong-target-residence-time p38α inhibitors as a mitosis-targeted therapy for colorectal cancer” (Nature Cancer, 2025).
Where two headings read alike, the source gives them in different places.

Columns and labels:
Experiment in all cases: selectivity profiling in a panel of 340 wild-type kinases (Reaction Biology Europe)
Format in all cases: binding
[1] = target: T1, 340 wild-type kinases (Homo sapiens, UniProt P42680)
T1 construct: purchased Reaction Biology Europe
T1 sequence (P42680 1-631): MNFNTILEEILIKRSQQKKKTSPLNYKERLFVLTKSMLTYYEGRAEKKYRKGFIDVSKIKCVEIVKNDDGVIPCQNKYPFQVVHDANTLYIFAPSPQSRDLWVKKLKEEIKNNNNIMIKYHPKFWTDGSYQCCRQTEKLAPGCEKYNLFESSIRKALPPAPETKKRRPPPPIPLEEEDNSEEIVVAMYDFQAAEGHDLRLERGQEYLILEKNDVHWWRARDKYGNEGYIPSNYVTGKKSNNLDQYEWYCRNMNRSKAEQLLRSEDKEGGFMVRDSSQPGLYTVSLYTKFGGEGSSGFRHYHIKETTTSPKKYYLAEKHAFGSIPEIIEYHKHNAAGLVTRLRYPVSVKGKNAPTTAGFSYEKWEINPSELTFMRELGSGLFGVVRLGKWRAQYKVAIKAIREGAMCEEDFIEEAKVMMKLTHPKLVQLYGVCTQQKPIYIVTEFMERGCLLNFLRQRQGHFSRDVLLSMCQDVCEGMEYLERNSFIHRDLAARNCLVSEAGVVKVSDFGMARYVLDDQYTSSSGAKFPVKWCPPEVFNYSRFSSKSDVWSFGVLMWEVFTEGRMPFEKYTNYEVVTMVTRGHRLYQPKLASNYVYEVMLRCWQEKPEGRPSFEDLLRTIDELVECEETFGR

[2] = target: T2, 340 wild-type kinases (Homo sapiens, UniProt P48730)
T2 construct: purchased Reaction Biology Europe

[3] = target: T3, 340 wild-type kinases (Homo sapiens, UniProt Q00536)
T3 construct: purchased Reaction Biology Europe

[4] = target: T4, 340 wild-type kinases (Homo sapiens, UniProt Q14289)
T4 construct: purchased Reaction Biology Europe

[5] = target: T5, 340 wild-type kinases (Homo sapiens, UniProt Q9H2K8)
T5 construct: purchased Reaction Biology Europe
T5 sequence (Q9H2K8 1-898): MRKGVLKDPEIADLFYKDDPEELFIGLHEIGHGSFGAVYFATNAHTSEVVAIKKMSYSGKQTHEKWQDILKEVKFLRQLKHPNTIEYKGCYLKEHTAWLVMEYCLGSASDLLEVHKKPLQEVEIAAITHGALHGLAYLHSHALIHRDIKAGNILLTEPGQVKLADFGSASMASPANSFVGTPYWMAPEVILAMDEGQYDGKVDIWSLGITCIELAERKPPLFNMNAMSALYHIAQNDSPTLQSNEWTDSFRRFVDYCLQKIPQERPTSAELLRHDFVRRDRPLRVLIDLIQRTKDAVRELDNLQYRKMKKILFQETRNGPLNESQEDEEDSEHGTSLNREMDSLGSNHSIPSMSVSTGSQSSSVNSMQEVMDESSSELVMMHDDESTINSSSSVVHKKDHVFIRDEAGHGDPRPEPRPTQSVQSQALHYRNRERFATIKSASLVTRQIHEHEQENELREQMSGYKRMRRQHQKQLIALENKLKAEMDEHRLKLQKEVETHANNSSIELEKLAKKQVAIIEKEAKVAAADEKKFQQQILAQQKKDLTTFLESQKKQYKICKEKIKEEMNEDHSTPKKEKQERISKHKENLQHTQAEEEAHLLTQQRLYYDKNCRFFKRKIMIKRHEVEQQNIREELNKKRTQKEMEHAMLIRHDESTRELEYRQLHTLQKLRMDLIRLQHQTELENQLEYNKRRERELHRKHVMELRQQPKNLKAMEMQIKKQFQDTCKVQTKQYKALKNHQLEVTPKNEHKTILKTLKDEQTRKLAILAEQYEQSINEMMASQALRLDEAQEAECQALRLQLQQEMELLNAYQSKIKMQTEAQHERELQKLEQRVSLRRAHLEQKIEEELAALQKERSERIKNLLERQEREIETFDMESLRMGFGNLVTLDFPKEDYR

[6] = target: T6, 340 wild-type kinases (Homo sapiens, UniProt Q9UEE5)
T6 construct: purchased Reaction Biology Europe
T6 sequence (Q9UEE5 1-414): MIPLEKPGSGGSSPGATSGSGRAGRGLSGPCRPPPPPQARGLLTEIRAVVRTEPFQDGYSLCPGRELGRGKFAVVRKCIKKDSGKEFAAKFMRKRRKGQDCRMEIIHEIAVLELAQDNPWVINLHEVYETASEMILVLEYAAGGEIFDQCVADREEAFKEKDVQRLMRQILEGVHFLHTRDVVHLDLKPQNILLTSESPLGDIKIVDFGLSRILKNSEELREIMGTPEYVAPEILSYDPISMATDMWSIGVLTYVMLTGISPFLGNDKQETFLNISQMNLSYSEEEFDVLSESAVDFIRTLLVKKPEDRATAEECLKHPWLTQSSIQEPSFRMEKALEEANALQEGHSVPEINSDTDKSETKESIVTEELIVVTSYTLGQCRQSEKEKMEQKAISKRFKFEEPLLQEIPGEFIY

[7] = target: T7, 340 wild-type kinases (Homo sapiens, UniProt Q9UQB9)
T7 construct: purchased Reaction Biology Europe
T7 sequence (Q9UQB9 1-309): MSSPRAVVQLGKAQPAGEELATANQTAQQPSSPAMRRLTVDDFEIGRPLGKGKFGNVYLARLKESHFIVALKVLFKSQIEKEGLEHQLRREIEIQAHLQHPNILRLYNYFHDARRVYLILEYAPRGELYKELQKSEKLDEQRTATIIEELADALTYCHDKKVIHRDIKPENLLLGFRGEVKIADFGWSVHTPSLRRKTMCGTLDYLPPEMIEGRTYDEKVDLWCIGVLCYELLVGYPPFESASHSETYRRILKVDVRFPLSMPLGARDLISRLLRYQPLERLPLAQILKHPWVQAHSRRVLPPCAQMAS

T4 sequence (Q14289 whole entry): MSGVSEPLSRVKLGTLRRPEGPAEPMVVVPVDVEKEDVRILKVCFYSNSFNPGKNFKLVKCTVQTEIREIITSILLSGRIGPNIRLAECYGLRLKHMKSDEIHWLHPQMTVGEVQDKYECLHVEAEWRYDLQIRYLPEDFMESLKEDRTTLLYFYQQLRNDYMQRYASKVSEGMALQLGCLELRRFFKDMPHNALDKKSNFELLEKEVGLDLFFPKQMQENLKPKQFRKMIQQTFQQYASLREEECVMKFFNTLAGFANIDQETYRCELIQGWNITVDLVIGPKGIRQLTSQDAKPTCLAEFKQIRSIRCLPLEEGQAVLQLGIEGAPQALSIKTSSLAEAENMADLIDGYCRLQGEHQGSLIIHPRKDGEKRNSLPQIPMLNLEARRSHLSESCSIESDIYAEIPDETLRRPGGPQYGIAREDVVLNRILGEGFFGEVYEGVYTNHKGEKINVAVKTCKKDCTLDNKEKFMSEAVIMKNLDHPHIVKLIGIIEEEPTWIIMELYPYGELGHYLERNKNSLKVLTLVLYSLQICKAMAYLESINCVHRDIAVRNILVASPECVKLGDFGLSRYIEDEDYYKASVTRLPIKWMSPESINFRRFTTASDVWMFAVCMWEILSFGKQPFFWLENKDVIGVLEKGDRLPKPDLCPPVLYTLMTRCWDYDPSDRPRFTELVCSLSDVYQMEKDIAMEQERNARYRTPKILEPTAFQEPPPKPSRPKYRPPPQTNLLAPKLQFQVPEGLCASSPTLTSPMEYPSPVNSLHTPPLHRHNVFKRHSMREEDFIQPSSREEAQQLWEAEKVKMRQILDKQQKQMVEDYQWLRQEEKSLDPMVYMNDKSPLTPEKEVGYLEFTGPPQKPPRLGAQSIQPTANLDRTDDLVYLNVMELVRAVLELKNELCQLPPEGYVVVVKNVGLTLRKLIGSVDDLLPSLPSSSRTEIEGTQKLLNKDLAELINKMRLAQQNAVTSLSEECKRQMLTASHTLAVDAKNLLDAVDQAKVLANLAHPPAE
T2 sequence (P48730 whole entry): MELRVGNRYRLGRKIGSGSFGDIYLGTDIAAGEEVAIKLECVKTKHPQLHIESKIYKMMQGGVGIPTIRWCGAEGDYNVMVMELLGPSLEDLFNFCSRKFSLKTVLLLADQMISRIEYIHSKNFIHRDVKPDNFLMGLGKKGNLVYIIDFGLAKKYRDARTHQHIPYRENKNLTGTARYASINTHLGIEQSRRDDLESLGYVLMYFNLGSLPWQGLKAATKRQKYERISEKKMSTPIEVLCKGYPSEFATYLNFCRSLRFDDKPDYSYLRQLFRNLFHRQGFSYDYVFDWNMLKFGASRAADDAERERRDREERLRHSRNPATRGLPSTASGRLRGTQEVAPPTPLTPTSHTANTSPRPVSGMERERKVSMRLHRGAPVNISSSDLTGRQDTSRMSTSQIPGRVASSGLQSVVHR
T3 sequence (Q00536 whole entry): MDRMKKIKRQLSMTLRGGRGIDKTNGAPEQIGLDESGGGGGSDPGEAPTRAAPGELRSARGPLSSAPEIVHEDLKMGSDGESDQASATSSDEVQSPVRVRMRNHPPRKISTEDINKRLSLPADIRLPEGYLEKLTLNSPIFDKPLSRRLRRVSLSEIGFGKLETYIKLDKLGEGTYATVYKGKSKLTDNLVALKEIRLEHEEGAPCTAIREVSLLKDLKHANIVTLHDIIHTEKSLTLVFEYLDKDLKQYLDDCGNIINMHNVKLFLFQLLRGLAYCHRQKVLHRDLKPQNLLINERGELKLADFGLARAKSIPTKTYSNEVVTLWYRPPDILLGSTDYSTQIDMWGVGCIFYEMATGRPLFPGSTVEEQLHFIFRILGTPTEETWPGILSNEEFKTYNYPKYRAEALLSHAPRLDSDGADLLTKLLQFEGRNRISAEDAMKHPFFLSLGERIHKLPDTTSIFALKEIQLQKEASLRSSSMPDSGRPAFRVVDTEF

SMILES: CNC(=O)c1ccc2c(c1)C(=O)c1ccc(Nc3ccc(F)c(NC(=O)C4CC4)c3)cc1CC2 [Compound 2015]
- remaining activity at 0.2 µM ([1]; 0.2 µM 2015, read-out: TEC residual activity): 120%
- remaining activity at 1 µM ([1]; 1 µM 2015, read-out: TEC residual activity): 108%
- remaining activity at 0.2 µM ([1]; TEC, 0.2 µM, read-out: residual activity): 120%
- remaining activity at 1 µM ([1]; TEC, 1 µM, read-out: residual activity): 108%
- remaining activity at 0.2 µM ([2]; 0.2 µM 2015, read-out: CK1delta residual activity): 117%
- remaining activity at 1 µM ([2]; 1 µM 2015, read-out: CK1delta residual activity): 111%
- remaining activity at 0.2 µM ([2]; CK1delta, 0.2 µM, read-out: residual activity): 117%
- remaining activity at 1 µM ([2]; CK1delta, 1 µM, read-out: residual activity): 111%
- remaining activity at 0.2 µM ([3]; 0.2 µM 2015, read-out: CDK16/CycY residual activity): 99.3%
- remaining activity at 1 µM ([3]; 1 µM 2015, read-out: CDK16/CycY residual activity): 96.8%
- remaining activity at 0.2 µM ([3]; CDK16/CycY, 0.2 µM, read-out: residual activity): 99.3%
- remaining activity at 1 µM ([3]; CDK16/CycY, 1 µM, read-out: residual activity): 96.8%
- remaining activity at 0.2 µM ([4]; 0.2 µM 2015, read-out: PYK2 residual activity): 98.8%
- remaining activity at 1 µM ([4]; 1 µM 2015, read-out: PYK2 residual activity): 86.1%
- remaining activity at 0.2 µM ([4]; PYK2, 0.2 µM, read-out: residual activity): 98.8%
- remaining activity at 1 µM ([4]; PYK2, 1 µM, read-out: residual activity): 86.1%
- remaining activity at 0.2 µM ([5]; 0.2 µM 2015, read-out: TAOK3 residual activity): 101%
- remaining activity at 1 µM ([5]; 1 µM 2015, read-out: TAOK3 residual activity): 98.6%
- remaining activity at 0.2 µM ([5]; TAOK3, 0.2 µM, read-out: residual activity): 101%
- remaining activity at 1 µM ([5]; TAOK3, 1 µM, read-out: residual activity): 98.6%
- remaining activity at 0.2 µM ([6]; 0.2 µM 2015, read-out: STK17A residual activity): 109%
- remaining activity at 1 µM ([6]; 1 µM 2015, read-out: STK17A residual activity): 97.8%
- remaining activity at 0.2 µM ([6]; STK17A, 0.2 µM, read-out: residual activity): 109%
- remaining activity at 1 µM ([6]; STK17A, 1 µM, read-out: residual activity): 97.8%
- remaining activity at 0.2 µM ([7]; 0.2 µM 2015, read-out: AuroraC residual activity): 88.5%
- remaining activity at 1 µM ([7]; 1 µM 2015, read-out: AuroraC residual activity): 96.3%
- remaining activity at 0.2 µM ([7]; AuroraC, 0.2 µM, read-out: residual activity): 88.5%
- remaining activity at 1 µM ([7]; AuroraC, 1 µM, read-out: residual activity): 96.3%
